Assay results reported in US10155004B2, “17-hydroxy-17-pentafluoroethyl-estra-4,9(10)-dien-11-aryl derivatives, method of production thereof and use thereof for the treatment of diseases” (BAYER INTELLECTUAL PROPERTY GMBH, priority 2009, dated 2018).

How the values were obtained:
[1] = target: T1, human progesterone receptor A (Homo sapiens, UniProt P06401); assay: Progesterone receptor-antagonistic action in stably transfected SK-N-MC cells, MTV-LUC reporter (PR-A); format: cell-based; conditions: for Progesterone receptor A (PR-A) Efficacy: antagonistic efficacy vs 0.1 nmol/l promegestone; for IC50: antagonism of 0.1 nmol/l promegestone, 24 hours, LUC reporter, read-out: Progesterone receptor A (PR-A) Potency IC50
T1 construct: expressed in transfected cells; host or cells: SK-N-MC human neuroblastoma cells, stably transfected
T1 sequence (P06401 1-769 isoform P06401-2): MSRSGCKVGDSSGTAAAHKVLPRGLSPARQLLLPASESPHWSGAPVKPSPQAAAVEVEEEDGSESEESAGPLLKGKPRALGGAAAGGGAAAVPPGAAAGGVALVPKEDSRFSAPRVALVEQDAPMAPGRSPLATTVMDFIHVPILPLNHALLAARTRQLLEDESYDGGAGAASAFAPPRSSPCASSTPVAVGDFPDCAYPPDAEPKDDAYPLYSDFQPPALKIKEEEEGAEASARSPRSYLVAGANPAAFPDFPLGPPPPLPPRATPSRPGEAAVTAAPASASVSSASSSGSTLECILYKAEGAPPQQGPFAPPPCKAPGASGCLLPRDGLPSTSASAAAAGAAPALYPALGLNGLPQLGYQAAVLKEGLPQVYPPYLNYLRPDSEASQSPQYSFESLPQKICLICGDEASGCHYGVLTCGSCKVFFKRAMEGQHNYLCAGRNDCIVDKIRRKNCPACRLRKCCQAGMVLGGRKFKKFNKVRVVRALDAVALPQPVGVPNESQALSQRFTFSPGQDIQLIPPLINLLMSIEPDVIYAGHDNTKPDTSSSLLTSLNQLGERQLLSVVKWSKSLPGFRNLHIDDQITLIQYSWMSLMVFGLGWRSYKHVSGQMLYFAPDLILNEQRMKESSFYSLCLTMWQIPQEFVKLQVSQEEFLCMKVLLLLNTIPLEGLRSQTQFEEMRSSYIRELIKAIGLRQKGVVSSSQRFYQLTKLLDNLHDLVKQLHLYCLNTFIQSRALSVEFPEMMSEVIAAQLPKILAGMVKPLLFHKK
Description: (§1) EXAMPLE 16 PROGESTERONE RECEPTOR-ANTAGONISTIC ACTION IN STABLE TRANSFECTANTS OF HUMAN NEUROBLASTOMA CELLS (SK-N-MC CELLS) WITH THE HUMAN PROGESTERONE A OR PROGESTERONE B RECEPTOR AND AN MTV-LUC REPORTER CONSTRUCT
(§2) SK-N-MC cells (human neuroblastoma cells), which have been stably transfected with plasmids, which express the human progesterone receptor B (pRChPR-B-neo) or the human progesterone receptor A (pRChPR-A-neo) and a reporter construct (pMMTV-LUC), were incubated for 24 hours either in the absence (negative control) or in the presence of increasing amounts of the respective test compound (0.01 nmol/l, 0.1 nmol/l 1 nmol/l, 10 nmol/l, 100 nmol/l and 1 μmol/l), in order to determine the agonistic efficacy. As positive control of reporter gene induction, the cells were treated with the synthetic gestagen promegestone (0.01 nmol/l, 0.1 nmol/l, 1 nmol/l, 10 nmol/l, 100 nmol/l and 1 μmol/l). For determination of the antagonistic activity, the cells were treated with 0.1 nmol/1 promegestone and additionally with increasing amounts of the respective test compound (0.01 nmol/l, 0.1 nmol/l, 1 nmol/l, 10 nmol/l, 100 nmol/l and 1 μmol/l). The activity of the LUC reporter gene (LUC=luciferase) was determined in the cell lysates and was measured as RLU (relative light units). All measured values are given as percentage efficacy and as EC50 or IC50 concentrations.
(§3) 11β-(4-Acetylphenyl)-20,20,21,21,21-pentafluoro-17-hydroxy-19-nor-17α-pregna-4,9-dien-3-one and 20,20,21,21,21-pentafluoro-17-hydroxy-11β-[4-(hydroxyacetyl)phenyl]-19-nor-17α-pregna-4,9-dien-3-one, very potent and therefore preferred examples from WO98/34947 and WO2008/058767, were tested as comparative compounds along with the test compound.

[2] = target: T2, human progesterone receptor B (Homo sapiens, UniProt P06401); assay: Progesterone receptor-antagonistic action in stably transfected SK-N-MC cells, MTV-LUC reporter (PR-B); format: cell-based; conditions: for Progesterone receptor B (PR-B) Efficacy: antagonistic efficacy vs 0.1 nmol/l promegestone; for IC50: antagonism of 0.1 nmol/l promegestone, 24 hours, LUC reporter, read-out: Progesterone receptor B (PR-B) Potency IC50
T2 construct: expressed in transfected cells; host or cells: SK-N-MC human neuroblastoma cells, stably transfected
T2 sequence (P06401 1-933): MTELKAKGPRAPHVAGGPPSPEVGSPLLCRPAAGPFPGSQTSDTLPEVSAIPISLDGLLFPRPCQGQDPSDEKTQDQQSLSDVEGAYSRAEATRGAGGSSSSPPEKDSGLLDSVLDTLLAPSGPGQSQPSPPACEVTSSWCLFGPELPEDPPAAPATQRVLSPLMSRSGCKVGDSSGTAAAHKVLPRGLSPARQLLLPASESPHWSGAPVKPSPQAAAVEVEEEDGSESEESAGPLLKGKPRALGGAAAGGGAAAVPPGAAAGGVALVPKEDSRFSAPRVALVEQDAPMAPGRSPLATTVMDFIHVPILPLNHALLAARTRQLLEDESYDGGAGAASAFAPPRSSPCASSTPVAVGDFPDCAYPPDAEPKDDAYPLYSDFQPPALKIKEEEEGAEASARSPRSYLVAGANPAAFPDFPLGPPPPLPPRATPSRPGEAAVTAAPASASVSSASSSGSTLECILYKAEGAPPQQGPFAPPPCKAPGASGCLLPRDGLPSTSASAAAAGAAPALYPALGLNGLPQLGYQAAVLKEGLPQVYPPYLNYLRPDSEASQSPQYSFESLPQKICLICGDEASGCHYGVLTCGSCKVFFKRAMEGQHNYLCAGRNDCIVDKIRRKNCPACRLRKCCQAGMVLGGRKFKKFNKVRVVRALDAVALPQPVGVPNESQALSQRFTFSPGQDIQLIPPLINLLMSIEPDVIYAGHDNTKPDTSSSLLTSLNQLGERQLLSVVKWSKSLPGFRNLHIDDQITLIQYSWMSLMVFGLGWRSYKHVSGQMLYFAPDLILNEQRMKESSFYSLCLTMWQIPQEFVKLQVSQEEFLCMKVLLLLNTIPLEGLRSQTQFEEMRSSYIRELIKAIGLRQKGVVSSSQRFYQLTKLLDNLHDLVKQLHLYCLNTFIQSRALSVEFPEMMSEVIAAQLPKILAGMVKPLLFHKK
Description: as §1, §2, §3

pregnant rats = assay: Abortion test on female rats (termination of early pregnancy); format: in vivo, rat; conditions: d5-d7 p.c., autopsy d9 p.c.
Description: EXAMPLE 17 ABORTION TEST ON FEMALE RATS
The action of progesterone and of the progesterone receptor is a fundamental precondition for successful pregnancy or gestation in mammals. The progesterone-antagonistic action of the compounds according to the invention was tested on pregnant rats (6 rats per group) on day 5 to 7 post coitum with conventional housing and feeding conditions.
After successful hand mating, the pregnant animals (presence of sperm in the vaginal smear on day 1 of pregnancy=d1 p.c.) were randomized and divided into the treatment group and the control group. The animals then each received subcutaneously or orally 0.15; 0.5; 1.5 or 5 mg/kg of the test compound or 1.0 ml/kg of vehicle (benzyl benzoate/castor oil: 1+4 [v/v]) daily from day 5 to day 7 (d5-d7 p.c.).
Autopsy was carried out on day 9 (d9 p.c.). As a characteristic of progesterone receptor antagonistic action, the uterus was examined for the presence of nidation sites. Complete absence, or also the presence of pathological, haemorrhagic or otherwise abnormal nidation sites on day 9 (d9 p.c.) was assessed as abortion.

[3] = daily dose 0.5 mg/kg s.c. or p.o.
[4] = daily dose 1.5 mg/kg s.c. or p.o.
[5] = daily dose 5.0 mg/kg s.c. or p.o.

Row | IC50 [1] [nM] | IC50 [2] [nM] | Compound | Progesterone receptor A (PR-A) Efficacy [1] [%] | Progesterone receptor B (PR-B) Efficacy [2] [%] | other results
1 | 0.014 | 0.02 | CC(=O)c1ccc(C2CC3(C)C(CCC3(O)C(F)(F)C(F)(F)F)C3CCC4=CC(=O)CCC4=C23)cc1 (stereo not drawn) [11β-(4-Acetylphenyl)-20,20,21,21,21-pentafluoro-17-hydroxy-19-nor-17α-pregna-4,9-dien-3-one, reference compound] | – | – | –
2 | 0.01 | – | CCSc1ccc([C@H]2C[C@@]3(C)C(CC[C@@]3(O)C(F)(F)C(F)(F)F)C3CCC4=CC(=O)CCC4=C32)cc1 (stereo partly drawn) [Example 2, (11β,17β)-11-[4-(ethylsulphanyl)phenyl]-17-hydroxy-17-(pentafluoroethyl)estra-4,9-dien-3-one] | – | – | –
3 | 0.01 | 0.01 | CSc1ccc(-c2ccc([C@H]3C[C@@]4(C)[C@@H](CC[C@@]4(O)C(F)(F)C(F)(F)F)[C@@H]4CCC5=CC(=O)CCC5=C43)cc2)cc1 [Example 9, (11β,17β)-17-Hydroxy-11-[4′-(methylsulphanyl)biphenyl-4-yl]-17-(pentafluoroethy)estra-4,9-dien-3-one] | – | – | –
4 | 0.1 | 0.2 | CN(C)S(=O)(=O)c1ccc([C@H]2C[C@@]3(C)[C@@H](CC[C@@]3(O)C(F)(F)C(F)(F)F)[C@@H]3CCC4=CC(=O)CCC4=C32)cc1 [Example 15, 4-[(11β,17β)-17-Hydroxy-3-oxo-17-(pentafluoroethy)estra-4,9-dien-11-yl]-N,N-dimethylbenzene Sulphonamide] | – | – | –

Further lines, the compound ahead of its results:

Row | Compound | IC50 [1] [nM] | IC50 [2] [nM] | Progesterone receptor A (PR-A) Efficacy [1] [%] | Progesterone receptor B (PR-B) Efficacy [2] [%] | other results
5 | C[S+]([O-])c1ccc([C@H]2C[C@@]3(C)[C@@H](CC[C@@]3(O)C(F)(F)C(F)(F)F)[C@@H]3CCC4=CC(=O)CCC4=C32)cc1 (mixture of isomers) [Example 3, (11β,17β)-17-Hydroxy-11-{4-[(RS)-methylsulphinyl]phenyl}-17-(pentafluoroethy)estra-4,9-dien-3-one] | – | – | 100 | 100 | –
6 | CSc1ccc([C@H]2C[C@@]3(C)[C@@H](CC[C@@]3(O)C(F)(F)C(F)(F)F)[C@@H]3CCC4=CC(=O)CCC4=C32)cc1 [Example 1, (11β,17β)-17-hydroxy-11-[4-(methylsulphanyl)phenyl]-17-(pentafluoroethyl)estra-4,9-dien-3-one] | – | – | 100 | 100 | Abortion rate (pregnant rats; [3]): 80%; Abortion rate (pregnant rats; [4]): 100%; Abortion rate (pregnant rats; [5]): 100%
7 | C[C@]12C[C@H](c3ccc(S(C)(=N)=O)cc3)C3=C4CCC(=O)C=C4CCC3C1CC[C@@]2(O)C(F)(F)C(F)(F)F (stereo partly drawn) [Example 8, (11β,17β)-17-Hydroxy-11-[4-(RS-methylsulphonimidoyl)phenyl]-17-(pentafluoroethyl)estra-4,9-dien-3-one] | – | – | 100 | 100 | Abortion rate (pregnant rats; daily dose 0.15 mg/kg s.c. or p.o.): 40%; Abortion rate (pregnant rats; [3]): 100%; Abortion rate (pregnant rats; [4]): 100%; Abortion rate (pregnant rats; [5]): 100%
8 | CN(C)S(=O)(=O)c1ccc(-c2ccc([C@H]3C[C@@]4(C)[C@@H](CC[C@@]4(O)C(F)(F)C(F)(F)F)[C@@H]4CCC5=CC(=O)CCC5=C43)cc2)cc1 [Example 14, 4′-[(11β,17β)-17-hydroxy-3-oxo-17-(pentafluoroethyl)estra-4,9-dien-11-yl]-N,N-dimethylbiphenyl-4-sulphonamide] | 0.01 | – | – | – | –
